In data set [1] the test system is PSA levels. The note with it: Phase I clinical trial, castration resistant PCa; cited from earlier work.
Data set [2] has as its system AR-expressing PCa cell lines (LNCaP, C4-2, CWR22R). The data set is described as follows: Toxicity to AR-expressing PCa cell lines (colony formation / dose-dependent growth inhibition). The format is cell-based, human. The protocol: (§1) Cell Colony Assay: Cells were plated in 24-well plates at a density allowing 6-7 days of exponential growth before confluency. Medium and compound was replaced every 48 hours to minimize the effect of potential compound instability. After 7 days of incubation in the presence of compound, cells were fixed and stained with methylene blue, followed by extraction of the stain with 1% SDS and spectrophotometry at 650 nm. Each assay was run in triplicate and the difference between control and compound-treated wells was determined using Student's t-test.
Dose-dependent inhibition of cell growth: Cells were plated at 1×10^3 cells per well in 96-well plates. Compounds were added in a dose range from 1 to 20000 nM in two-fold increments. Each dose was tested in triplicate. Controls were 0.1% DMSO (no effect on cell viability) and 50 μM 9-aminoacridine (complete cell death). Cells were incubated for 6 days and then fixed and stained with methylene blue, followed by extraction of the stain with 1% SDS and spectrophotometry at 650 nm. The assay was run two times and, based on the results, the inhibitory concentration of compound suppressing cell growth by 50% as compared to DMSO (IC50) was calculated by the sigmoid approximation method using CalcuSyn software (Biosoft, Chembridge, UK). Confidence intervals were calculated for each sigmoid.
This Example provides a description of the effect of the selected compounds on the growth of PCa cells. To test the toxicity of the identified AR inhibitors towards cells of different origins, we performed colony formation assays using a single dose of each compound (10 μM) on several PCa (LNCaP, C4-2, CWR22R and DU145) and two non-PCa (HT1080 and HeLa) cell lines (FIG. 2A). […] These compounds were not weaker inhibitors of AR transcriptional activity in CWR22R or C4-2 cells than compounds that inhibited growth of the cells. […]

A short description of data set [3]: Microsomal stability. It is filed as in vitro ADME. Conditions: 1 hour incubation with rat microsomes. The protocol:
Five hit compounds, representing both the ARTIS and ARTIK categories (c6, c11, c17, c52 and c85), were selected for in vivo tests based on all of the previous assays. Compound c5 was rejected due to very low microsomal stability (<5% after 1 hour incubation with rat microsomes). The toxicity of the compounds was evaluated in a dose escalation assay in which male NIH Swiss mice (n=4) received three sequential intraperitoneal (i.p.) injections of each compound delivered in 3 day intervals. The first dose was 20-fold higher than the in vitro IC50 (20×IC50) for the compound in CWR22R cells recalculated based on mouse weight (see Example 1) and the second and third doses were 50×IC50 and 100×IC50, respectively. On the day after the last injection, half of the mice in each group were sacrificed for gross pathology examination and collection of blood for serum biochemistry assays, which include total protein, glucose, bilirubin, and creatinine levels, activity of liver enzymes, and ion concentrations. The remaining mice were sacrificed and evaluated similarly 7 days after the last compound injection. […] A minor decrease in serum glucose concentration (70-80% of control) was observed on the day after the last compound injection in almost all mice, but glucose levels were normal a week later (data not shown). […]

Data set [4] relates to HT1080, HeLa and DU145 cells. The data set is described as follows: Colony formation assay, non-PCa and AR-negative PCa cells. The note with it: 10 μM, 7 days. The format is cell-based, human. As for the experimental part: as §1
This Example provides a description of the effect of the selected compounds on the growth of PCa cells. To test the toxicity of the identified AR inhibitors towards cells of different origins, we performed colony formation assays using a single dose of each compound (10 μM) on several PCa (LNCaP, C4-2, CWR22R and DU145) and two non-PCa (HT1080 and HeLa) cell lines (FIG. 2A). […] These compounds were not weaker inhibitors of AR transcriptional activity in CWR22R or C4-2 cells than compounds that inhibited growth of the cells.

The test system of data set [5] is CWR22R cells. The data set is described as follows: Cell cycle distribution by propidium iodide staining. The format is cell-based, human. As for the experimental part:
Analysis of cell cycle distribution was based on staining of DNA content by propidium iodide. 10^5 cells were removed from culture dishes using trypsin, washed with PBS and resuspended in 300 μl 3% BSA in PBS, followed by addition of […] 70% ethanol. Cells were kept at −20° C. for several hours and then stained with 10 μg/ml propidium iodide in the presence of 30 μg/ml RNase A for 2 hrs at 37° C. DNA content was assessed using a FACS Calibur instrument and CellQuest software (Becton Dickinson, Franklin Lakes, N.J.).
To test this possibility, we assessed the cell cycle distribution of CWR22R cells treated with both categories of compounds. […] Therefore, different subsets of compounds inhibiting AR-dependent transcription in androgen-independent PCa cells cause either growth arrest or apoptosis in these cells. Whether a compound causes growth arrest or apoptosis is not determined by the potency of the compound as an inhibitor of AR-dependent transcription (i.e., FIG. 2B).

For data set [6], the target named is T1, AR LBD (Homo sapiens, UniProt P10275).
T1 sequence (P10275 1-920): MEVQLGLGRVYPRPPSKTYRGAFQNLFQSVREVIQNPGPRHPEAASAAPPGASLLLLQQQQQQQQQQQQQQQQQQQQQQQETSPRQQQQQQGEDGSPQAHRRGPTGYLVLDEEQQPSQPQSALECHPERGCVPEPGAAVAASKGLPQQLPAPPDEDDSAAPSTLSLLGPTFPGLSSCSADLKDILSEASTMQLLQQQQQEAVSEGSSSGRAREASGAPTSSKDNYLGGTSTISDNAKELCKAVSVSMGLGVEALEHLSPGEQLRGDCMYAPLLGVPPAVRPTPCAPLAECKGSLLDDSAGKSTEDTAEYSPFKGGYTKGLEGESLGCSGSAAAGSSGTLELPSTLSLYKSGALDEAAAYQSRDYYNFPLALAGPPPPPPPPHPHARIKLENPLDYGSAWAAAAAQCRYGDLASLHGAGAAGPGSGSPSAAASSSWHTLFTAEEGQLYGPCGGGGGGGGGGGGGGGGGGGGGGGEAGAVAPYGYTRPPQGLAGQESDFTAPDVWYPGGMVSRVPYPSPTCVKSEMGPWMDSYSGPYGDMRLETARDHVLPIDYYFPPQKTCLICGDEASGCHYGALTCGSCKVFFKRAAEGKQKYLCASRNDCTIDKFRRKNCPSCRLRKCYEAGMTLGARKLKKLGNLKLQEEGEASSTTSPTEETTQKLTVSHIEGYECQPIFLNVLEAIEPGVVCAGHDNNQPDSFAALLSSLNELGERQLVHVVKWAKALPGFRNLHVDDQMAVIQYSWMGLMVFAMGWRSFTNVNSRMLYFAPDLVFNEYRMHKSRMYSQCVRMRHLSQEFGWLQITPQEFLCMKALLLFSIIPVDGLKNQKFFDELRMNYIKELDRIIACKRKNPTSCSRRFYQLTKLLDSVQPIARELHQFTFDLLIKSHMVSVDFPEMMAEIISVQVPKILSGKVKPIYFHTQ
Conditions: cited from earlier work.

Entries after “also recorded” stand apart in the source; their conditions may differ.

In the case of `CNC(=O)c1ccc(N2C(=S)N(c3ccc(C#N)c(C(F)(F)F)c3)C(=O)C2(C)C)cc1F` [MDV3100], the “PSA levels in patients” value in data set [1] is reported as “demonstrated efficacy in decreasing PSA levels”.

Regarding `O=C1N=C(Nc2cccc(Cl)c2Cl)SC1=Cc1ccco1` [c5], the “toxicity towards AR-expressing PCa cell lines” value in data set [2] (colony formation, 10 μM, three AR-expressing PCa cell lines) was “different degrees of toxicity; also recorded: suppress growth of all”. Also, the “degree of toxicity to PCa cells (killing vs reduced growth)” value in data set [2] (dose-dependent toxicity, by day 7) is recorded as “reduced growth as compared to untreated control cells, but not obvious cell death”. The “microsomal stability, compound left” value in data set [3] is given as below 5%. Besides, in data set [4], the “growth of / toxicity towards non-PCa cells or AR-negative PCa cells (DU145)” value is “no toxicity”. The “changes in cell cycle distribution” value in data set [5] (increase in G1, decrease in S phase) was “cell cycle arrest”. In data set [5] (propidium iodide FACS), the “cells with sub-G1 DNA content (apoptotic)” value is recorded as “did not result in appearance of cells with sub-G1 DNA content”.

`CNC(=O)c1ccc(N2C(=S)N(c3ccc(C#N)c(C(F)(F)F)c3)C(=O)C23CCC3)cc1F` [RD162]: in data set [6], the “partial agonist activity on AR” value is “not displayed”. For the same molecule, the “binding to the AR LBD” value in data set [6] (non-competitive antagonists) is “bind with high affinity to the AR LBD”.

The values above are taken from patent US8835447B2, “Method for treating androgen receptor positive cancers” (priority 2009, dated 2014).
